Measurements: patent publication US20240285634A1, “COMPOUND AND METHOD FOR TREATING CHEMOTHERAPY-ASSOCIATED GASTROINTESTINAL SIDE EFFECTS” (ONQUALITY PHARMACEUTICALS CHINA LTD., priority 2021, published 2024)
Counter-ions that a name gives are not always drawn.

How the values were obtained:
[1] = system: Chemotherapeutic agent-caused diarrhea models of Balb/c mice; assay: Relieving effect on diarrhea caused by a chemotherapeutic agent (Examples 1-201); format: in vivo; details: for diarrhea gradings compared with the chemotherapeutic agent group: administered before the chemotherapeutic agent, Table 3 and FIG. 2
Text: Construction of mouse animal models: Chemotherapeutic agent-caused diarrhea models of Balb/c mice were constructed according to the administration mode and frequency of the chemotherapeutic agent as shown in Table 3. After administration for several days, mice developed different extents of diarrhea symptoms (as shown in FIG. 1), which were similar to the conditions in human. Thus, chemotherapeutic agent-caused diarrhea models of mice are very good models to mimic diarrhea in human caused by the chemotherapeutic agent.
Balb/c mice were fed for 1 week, and then divided into groups. The experiment was divided into a control group, a chemotherapeutic agent group, and a group of the compound as shown in Formula I, each of which comprised 10 mice, to perform the administration experiment, for which the administration dosage, mode, time and frequency were shown in Table 3. The control group: being injected or intragastrically administered with the same solvent as that used in the group of the compound as shown in Formula I (the injection mode and time were shown in Table 3), and then being injected or intragastrically administered with the same solvent as that used in the chemotherapeutic agent group (the administration mode was shown in Table 3); the chemotherapeutic agent group: being injected or intragastrically administered with the same solvent as that used in the group of the compound as shown in Formula I (the administration mode and time were shown in Table 3), and then being injected or intragastrically administered with the chemotherapeutic agent (the type, administration mode and dosage were shown in Table 3); the group of the compound as shown in Formula I: being injected or intragastrically administered with the compound as shown in Formula I (the administration mode and time were shown in Table 3), and then being administered with the chemotherapeutic agent (the administration mode and dosage were shown in Table 3).
The scoring of diarrhea can refer to the method of Akinobu Kurita (Cancer Chemother Pharmacol 2000; 46:211-20.), Grade 0: normal feces; Grade 1: mild diarrhea, the stools is slightly wet and soft; Grade 2: moderate diarrhea, loose stools and mild perianal contamination; Grade 3: severe diarrhea, watery stools and accompanied by severe perianal staining (see FIG. 1). It is regarded as effective remission when the diarrhea grading of mice in the group of the compound as shown in Formula I is reduced compared with the average diarrhea grading of mice in the chemotherapeutic agent group.
The diarrhea grading of mice was observed and recorded every day. At the end of the experiment, the number of mice in the group of the compound as shown in Formula I whose diarrhea grading was lower than that of mice in the chemotherapeutic agent group was recorded. Table 3 lists various animal experiment combinations of chemotherapeutic agents and the compound as shown in Formula I, as well as the corresponding experimental results. (Relative remission rate %=the number of mice in the group of the compound as shown in Formula I whose diarrhea has been effectively relieved/the total number of mice in the group of the compound as shown in Formula I*100%. The establishment rate of diarrhea model in the chemotherapeutic agent group was 50%-70%, that is, about 5-7 of 10 mice developed diarrhea during the experiment, and there were cases of individual mice death or not developing diarrhea.)

[2] = system: Balb/c mice, constipation caused by continuous administration of a chemotherapeutic agent; assay: Relieving effect on constipation caused by the continuous administration of a chemotherapeutic agent (Examples 385-405); format: in vivo; details: for Relative remission rate (%): Fluorouracil (5-Fu) 100 mg/kg intraperitoneal injection once a day for 3 days, experimental cycle 7 days
Text: Balb/c mice were fed for 1 week, and then divided into groups. The experiment was divided into a control group, a chemotherapeutic agent group, and a group of the compound as shown in Formula I, each of which comprised 10 mice, to perform the administration experiment, for which the administration dosage, mode, time and frequency were shown in Table 6. The control group: being injected or intragastrically administered with the same solvent as that used in the group of the compound as shown in Formula I (the administration mode and time were shown in Table 6), and then being injected or intragastrically administered with the same solvent as that used in the group of the compound as shown in Formula I (the administration mode was shown in Table 6); the chemotherapeutic agent group: being injected or intragastrically administered with the same solvent as that used in the group of the compound as shown in Formula I (the administration mode and time were shown in Table 6), and then being injected or intragastrically administered with the chemotherapeutic agent (the type, administration mode, time and dosage were shown in Table 6); the group of the compound as shown in Formula I: being injected or intragastrically administered with the compound as shown in Formula I (the administration mode and time were shown in Table 6), and then being administered with the chemotherapeutic agent (the type, administration mode, time and dosage were shown in Table 6).
The feces reduction rate was calculated with reference to the method of Ji Eun Kim (Lab Anim Res. 2016 December; 32(4): 231-240.). Feces reduction rate (%)=(the control group−the chemotherapeutic agent group or the group of the compound as shown in Formula I)/the control group*100%
It is regarded as effective remission when the feces reduction rate of mice in the group of the compound as shown in Formula I is reduced compared with that in the chemotherapeutic agent group.
The feces amount of mice within 3 hours was observed and recorded every day. At the end of the experiment, the number of mice in the group of the compound as shown in Formula I whose feces reduction rate was lower than that of mice in the chemotherapeutic agent group was recorded. Table 6 lists various animal experiment combinations of chemotherapeutic agents and the compound as shown in Formula I, as well as the corresponding experimental results.

[3] = continuous administration of fluorouracil for less than 7 days
[4] = continuous administration of the chemotherapeutic agent for 7 days or less

Question: How did the Relative remission rate ([1]; Ex 89, Oxaliplatin 17.5 mg/kg intravenous single, compound 100 mg/kg intraperitoneal single 1 h before, cycle 8 days) turn out when O=C1NCC2(CCCCC2)n2c1cc1cnc(Nc3ccc(N4CCC(N5CCOCC5)CC4)cn3)nc12 [Compound III] was run?
Answer: 40%

Question: And the Relative remission rate ([1]; Ex 90, Oxaliplatin 17.5 mg/kg intravenous single, compound 100 mg/kg intraperitoneal single 4 h before, cycle 8 days)?
Answer: 70%

Question: What about the Relative remission rate ([1]; Ex 91, Oxaliplatin 17.5 mg/kg intravenous single, compound 100 mg/kg intraperitoneal single 8 h before, cycle 8 days) of the same compound?
Answer: 40%

Question: And the Relative remission rate ([1]; Ex 178, Fluorouracil 50 + oxaliplatin 5 + irinotecan 50 + tetrahydrofolic acid 90 mg/kg intravenous single, compound 150 mg/kg oral single 0.5 h before, cycle 7 days)?
Answer: 30%

Question: What about the Relative remission rate ([1]; Ex 179, Fluorouracil 50 + oxaliplatin 5 + irinotecan 50 + tetrahydrofolic acid 90 mg/kg intravenous single, compound 150 mg/kg oral single 4 h before, cycle 7 days) of the same compound?
Answer: 50%

Question: And the Relative remission rate ([1]; Ex 180, Fluorouracil 50 + oxaliplatin 5 + irinotecan 50 + tetrahydrofolic acid 90 mg/kg intravenous single, compound 150 mg/kg oral single 8 h before, cycle 7 days)?
Answer: 40%

Question: What about the Relative remission rate ([1]; Ex 181, Fluorouracil 50 + oxaliplatin 5 + irinotecan 50 + tetrahydrofolic acid 90 mg/kg intravenous single, compound 150 mg/kg oral single 12 h before, cycle 7 days) of the same compound?
Answer: 40%

Question: What about the Relative remission rate ([1]; Ex 182, Fluorouracil 50 + oxaliplatin 5 + irinotecan 50 + tetrahydrofolic acid 90 mg/kg intravenous single, compound 150 mg/kg oral single 24 h before, cycle 7 days) of the same compound?
Answer: 20%

Question: And the Relative remission rate ([1]; Ex 199, Etoposide 60 + carboplatin 5 mg/kg intraperitoneal single, compound 100 mg/kg oral single 0.5 h before, cycle 10 days)?
Answer: 60%

Question: And the “diarrhea gradings compared with the chemotherapeutic agent group” value [1]?
Answer: relieved to different degrees

Question: And the “Relative remission rate (%)” value ([2]; Example 398, compound 100 mg/kg intravenous injection once a day for 3 days, 2 h before the chemotherapeutic agent)?
Answer: 40%

Question: And the “relieving effects on constipation” value [2, 3]?
Answer: significant relieving effects

Question: What about the “relieving effects on constipation” value [2, 4] of the same compound?
Answer: have relieving effects

Question: How did the Relative remission rate ([1]; Ex 31, 5-Fu 125 mg/kg intraperitoneal single, compound 50 mg/kg intraperitoneal single 0.5 h before, cycle 10 days) turn out when O=C1NCC2(CCCCC2)n2c1cc1cnc(Nc3ccc(N4CCNCC4)cn3)nc12 [Compound II] was run?
Answer: 30%

Question: What about the Relative remission rate ([1]; Ex 32, 5-Fu 125 mg/kg intraperitoneal single, compound 100 mg/kg intraperitoneal single 4 h before, cycle 10 days) of the same compound?
Answer: 60%

Question: And the Relative remission rate ([1]; Ex 33, 5-Fu 125 mg/kg intraperitoneal single, compound 150 mg/kg intraperitoneal single 12 h before, cycle 10 days)?
Answer: 40%

Question: What about the Relative remission rate ([1]; Ex 173, Fluorouracil 50 + oxaliplatin 5 + irinotecan 50 + tetrahydrofolic acid 90 mg/kg intraperitoneal single, compound 100 mg/kg oral single 0.5 h before, cycle 7 days) of the same compound?
Answer: 30%

Question: What about the Relative remission rate ([1]; Ex 174, Fluorouracil 50 + oxaliplatin 5 + irinotecan 50 + tetrahydrofolic acid 90 mg/kg intraperitoneal single, compound 100 mg/kg oral single 4 h before, cycle 7 days) of the same compound?
Answer: 30%

Question: What about the Relative remission rate ([1]; Ex 175, Fluorouracil 50 + oxaliplatin 5 + irinotecan 50 + tetrahydrofolic acid 90 mg/kg intraperitoneal single, compound 100 mg/kg oral single 8 h before, cycle 7 days) of the same compound?
Answer: 40%

Question: What about the Relative remission rate ([1]; Ex 176, Fluorouracil 50 + oxaliplatin 5 + irinotecan 50 + tetrahydrofolic acid 90 mg/kg intraperitoneal single, compound 100 mg/kg oral single 12 h before, cycle 7 days) of the same compound?
Answer: 30%

Question: What about the Relative remission rate ([1]; Ex 177, Fluorouracil 50 + oxaliplatin 5 + irinotecan 50 + tetrahydrofolic acid 90 mg/kg intraperitoneal single, compound 100 mg/kg oral single 24 h before, cycle 7 days) of the same compound?
Answer: 30%

Question: What about the Relative remission rate ([1]; Ex 197, Gemcitabine (GEM) 120 mg/kg intravenous single, compound 100 mg/kg oral single 24 h before, cycle 8 days) of the same compound?
Answer: 40%

Question: And the Relative remission rate ([1]; Ex 198, Etoposide 60 + carboplatin 5 mg/kg intraperitoneal single, compound 100 mg/kg oral single 2 h before, cycle 10 days)?
Answer: 50%

Question: What about the “diarrhea gradings compared with the chemotherapeutic agent group” value [1] of the same compound?
Answer: relieved to different degrees

Question: What about the “Relative remission rate (%)” value ([2]; Example 397, compound 100 mg/kg intraperitoneal injection once a day for 3 days, 0.5 h before the chemotherapeutic agent) of the same compound?
Answer: 20%

Question: What about the “relieving effects on constipation” value [2, 3] of the same compound?
Answer: significant relieving effects

Question: What about the “relieving effects on constipation” value [2, 4] of the same compound?
Answer: have relieving effects

Question: With CC(C)N1CCN(c2ccc(Nc3ncc4cc5n(c4n3)C3(CCCCC3)CNC5=O)nc2)CC1 [Compound IV hydrochloride, Lerociclibdihydrochloride] as the compound, how does the Relative remission rate ([1]; Ex 115, Irinotecan (CPT-11) 240 mg/kg intraperitoneal single, compound 100 mg/kg intraperitoneal single 0.5 h before, cycle 11 days) read?
Answer: 40%

Question: What about the Relative remission rate ([1]; Ex 116, Irinotecan (CPT-11) 240 mg/kg intraperitoneal single, compound 100 mg/kg intraperitoneal single 4 h before, cycle 11 days) of the same compound?
Answer: 60%

Question: And the Relative remission rate ([1]; Ex 117, Irinotecan (CPT-11) 240 mg/kg intraperitoneal single, compound 100 mg/kg intraperitoneal single 12 h before, cycle 11 days)?
Answer: 20%

Question: What about the Relative remission rate ([1]; Ex 188, Fluorouracil 50 + oxaliplatin 5 + irinotecan 50 + tetrahydrofolic acid 90 mg/kg intravenous single, compound 100 mg/kg intraperitoneal single 0.5 h before, cycle 7 days) of the same compound?
Answer: 70%

Question: And the Relative remission rate ([1]; Ex 189, Fluorouracil 50 + oxaliplatin 5 + irinotecan 50 + tetrahydrofolic acid 90 mg/kg intravenous single, compound 100 mg/kg intraperitoneal single 12 h before, cycle 7 days)?
Answer: 50%

Question: And the Relative remission rate ([1]; Ex 201, Gemcitabine 120 + carboplatin 5 mg/kg intravenous single, compound 100 mg/kg oral single 24 h before, cycle 8 days)?
Answer: 40%

Question: And the “Relative remission rate (%)” value ([2]; Example 400, compound intraperitoneal injection, 2 h before the chemotherapeutic agent, dosage cell prints 'Once a day, for 3 days', frequency cell 'Single')?
Answer: 50%

Question: What about the “Relative remission rate (%)” value ([2]; Example 401, compound intraperitoneal injection, 12 h before the chemotherapeutic agent, dosage cell prints 'Once a day, for 3 days', frequency cell 'Single') of the same compound?
Answer: 30%
